From patent publication US20090123389A1, “Methods for modulating Th17 cell development in the treatment and prevention of cellulite” (priority 2007, published 2009)

Assays:
[1] = tested on: CD4+ CD25− T cells; experiment: DNA microarray transcriptional profile of T cells activated in Th17-priming conditions; type: cell-based, mouse; settings: 10 nM, Th17-priming conditions
[2] = tested on: fibrosis; settings: in vitro; cited from earlier work

SMILES: O=C(CC1NCCCC1O)Cn1cnc2cc(Br)c(Cl)cc2c1=O (racemic) [HF, 7-bromo-6-chloro-3-[3-(3-hydroxy-2-piperidinyl)-2-oxopropyl]-4(3H)-quinazolinone]
- Xist transcript fold increase, HF vs. MAZ1310 ([1]; 3 hr): 3.5 ± 1.7 fold
- Aars transcript fold increase, HF vs. MAZ1310 ([1]; 6 hr): 2.6 ± 0.2 fold
- Aff1 transcript fold increase, HF vs. MAZ1310 ([1]; 6 hr): 2.6 ± 0.3 fold
- Aldh18a1 transcript fold increase, HF vs. MAZ1310 ([1]; 6 hr): 2.7 ± 0.2 fold
- Asns transcript fold increase, HF vs. MAZ1310 ([1]; 6 hr): 7.1 ± 0.5 fold
- Atf3 transcript fold increase, HF vs. MAZ1310 ([1]; 6 hr): 3.2 ± 0.5 fold
- Atf5 transcript fold increase, HF vs. MAZ1310 ([1]; 6 hr): 8.9 ± 1.0 fold
- Cars transcript fold increase, HF vs. MAZ1310 ([1]; 6 hr): 2.2 ± 0.3 fold
- Cd274 transcript fold increase, HF vs. MAZ1310 ([1]; 6 hr): 2.0 ± 0.1 fold
- Cebpb transcript fold increase, HF vs. MAZ1310 ([1]; 6 hr): 8.0 ± 0.2 fold
- Cebpg transcript fold increase, HF vs. MAZ1310 ([1]; 6 hr): 3.1 ± 0.5 fold
- Chd2 transcript fold increase, HF vs. MAZ1310 ([1]; 6 hr): 2.5 ± 0.5 fold
- Cldn12 transcript fold increase, HF vs. MAZ1310 ([1]; 6 hr): 4.6 ± 0.5 fold
- Clic4 transcript fold increase, HF vs. MAZ1310 ([1]; 6 hr): 2.8 ± 0.2 fold
- Cth transcript fold increase, HF vs. MAZ1310 ([1]; 6 hr): 16.0 ± 1.6 fold
- Cxcl10 transcript fold increase, HF vs. MAZ1310 ([1]; 6 hr): 2.1 ± 0.1 fold
- Ddit3 transcript fold increase, HF vs. MAZ1310 ([1]; 6 hr): 5.0 ± 0.7 fold
- Eif4Ebp1 transcript fold increase, HF vs. MAZ1310 ([1]; 6 hr): 5.3 ± 0.3 fold
- Gpt2 transcript fold increase, HF vs. MAZ1310 ([1]; 6 hr): 16.7 ± 2.2 fold
- Herpud1 transcript fold increase, HF vs. MAZ1310 ([1]; 6 hr): 2.7 ± 0.1 fold
- Icam1 transcript fold increase, HF vs. MAZ1310 ([1]; 6 hr): 2.8 ± 0.3 fold
- Irf1 transcript fold increase, HF vs. MAZ1310 ([1]; 6 hr): 2.6 ± 0.2 fold
- Lars transcript fold increase, HF vs. MAZ1310 ([1]; 6 hr): 2.1 ± 0.0 fold
- Mpa2l transcript fold increase, HF vs. MAZ1310 ([1]; 6 hr): 7.3 ± 1.7 fold
- Ncoa7 transcript fold increase, HF vs. MAZ1310 ([1]; 6 hr): 3.2 ± 0.5 fold
- Nfkbiz transcript fold increase, HF vs. MAZ1310 ([1]; 6 hr): 1.9 ± 0.3 fold
- Pck2 transcript fold increase, HF vs. MAZ1310 ([1]; 6 hr): 7.4 ± 0.9 fold
- Pdcd1lg2 transcript fold increase, HF vs. MAZ1310 ([1]; 6 hr): 2.5 ± 0.3 fold
- Phgdh transcript fold increase, HF vs. MAZ1310 ([1]; 6 hr): 4.2 ± 0.3 fold
- Psat1 transcript fold increase, HF vs. MAZ1310 ([1]; 6 hr): 2.6 ± 0.0 fold
- Psph transcript fold increase, HF vs. MAZ1310 ([1]; 6 hr): 3.4 ± 0.3 fold
- Pvr transcript fold increase, HF vs. MAZ1310 ([1]; 6 hr): 2.0 ± 0.1 fold
- Pycr1 transcript fold increase, HF vs. MAZ1310 ([1]; 6 hr): 6.6 ± 0.4 fold
- Pycs transcript fold increase, HF vs. MAZ1310 ([1]; 6 hr): 2.3 ± 0.1 fold
- Sars1 transcript fold increase, HF vs. MAZ1310 ([1]; 6 hr): 2.3 ± 0.1 fold
- Sesn2 transcript fold increase, HF vs. MAZ1310 ([1]; 6 hr): 2.3 ± 0.2 fold
- Slamf7 transcript fold increase, HF vs. MAZ1310 ([1]; 6 hr): 2.1 ± 0.2 fold
- Slc1a4 transcript fold increase, HF vs. MAZ1310 ([1]; 6 hr): 4.6 ± 0.4 fold
- Slc5a9 transcript fold increase, HF vs. MAZ1310 ([1]; 6 hr): 5.7 ± 0.6 fold
- Slc7a3 transcript fold increase, HF vs. MAZ1310 ([1]; 6 hr): 6.5 ± 0.9 fold
- Slc14a1 transcript fold increase, HF vs. MAZ1310 ([1]; 6 hr): 6.6 ± 0.4 fold
- Trib3 transcript fold increase, HF vs. MAZ1310 ([1]; 6 hr): 18.5 ± 8.5 fold
- Trim12 transcript fold increase, HF vs. MAZ1310 ([1]; 6 hr): 4.9 ± 0.7 fold
- Vegfa transcript fold increase, HF vs. MAZ1310 ([1]; 6 hr): 5.8 ± 0.5 fold
- Xist transcript fold increase, HF vs. MAZ1310 ([1]; 6 hr): 2.1 ± 0.7 fold
- concentrations at which HF acts as an inhibitor of fibrosis [2]: 1 to 200 nM
